In test [1] the test system is HaCaT cells (EGFR expressing cell line). The test can be described thus: HaCaT cell proliferation inhibitory activity (CellTiter-Glo, 72 hours). It counts as cell-based. The conditions noted are these: Homo sapiens. How it is done:
(§1) To evaluate the cell proliferation inhibitory activity of the compound according to the present invention on HER2 and EGFR kinases, the following method was performed using HER2 overexpressing cell lines (SK-BR-3, BT-474, and N-87) and EGFR expressing cell line (HaCaT).
(§2) McCOY'S 5A supplemented with 10% FBS was used for SK-BR-3 cells, RPMI-1640 medium supplemented with 20% FBS was used for BT-474 cancer cells, and RPMI-1640 medium supplemented with 10% FBS was used for N-87 cancer cells. DMEM supplemented with 10% FBS was used for HaCaT cells.
(§3) For SK-BR-3 cells, 5000 cells were aliquoted into each well of a white clear bottom 96 well plate (Corning) 48 hours before treatment with the compounds of Examples. For BT-474 cells, 5000 cells were aliquoted into each well of a white clear bottom 96 well plate (Corning) 48 hours before treatment with the compounds of Examples. For N-87 cells, 5000 cells were aliquoted into each well of a white clear bottom 96 well plate (Corning) 24 hours before treatment with the compounds of Examples. For HaCaT cells, 3000 cells were aliquoted into each well of a white clear bottom 96 well plate (Corning) 24 hours before treatment with the compounds of Examples. For SK-BR-3 cells and BT-474 cells, the compounds of Examples were diluted in dimethyl sulfoxide (three-fold dilution, a total of 11 concentrations) and injected each in an amount of 1 μl to a final concentration of 0.2 nM to 10 μM. For N-87 cells, the compounds of Examples were diluted in dimethyl sulfoxide (five-fold dilution, a total of 11 concentrations) and injected each in an amount of 0.5 μl to a final concentration of […] to 5 μM. For HaCaT cells, the compounds of Examples were diluted in dimethyl sulfoxide (three-fold dilution, a total of 11 concentrations) and injected each in an amount of 0.5 μl to a final concentration of 0.8 nM to 45 μM. For the measurement of living cells, the cells were stored at room temperature for 10 minutes using CellTiter-Glo cell viability reagent (Promega) after a certain period of time (SK-BR-3: 120 hours, BT-474: 120 hours, N-87: 72 hours, and HaCaT: 72 hours) post treatment with the compounds of Examples, and the luminescence intensity thereof was measured using a reader (SynergyNeo, Biotek). Each test was repeated three times.
(§4) The result values were calculated as a cell growth rate (%) compared to those of the control group. A graph was created using the GraphPad Prism version 5.0 program, and GI50 values were calculated.

In test [2] the test system is SK-BR-3 cells (HER2 overexpressing cell line). Kind of test: SK-BR-3 cell proliferation inhibitory activity (CellTiter-Glo, 120 hours). It counts as cell-based. The conditions noted are these: Homo sapiens. How it is done:
as §1, §2, §3, §4
(In general: In ATP-based viability assays light output follows the ATP content of the culture.)

Structures are written as SMILES. Where only a bound is given, the exact number is not on record here.

By GI50 is commonly meant the concentration at which growth is held to half of that of the control. In the case of `C=CC(=O)N1CC[C@@H](Oc2cc3c(Nc4cc(-c5ccco5)ccc4OC)ncnc3cc2OC)[C@H](F)C1` (relative stereo) [Example 179, 1-(trans-3-fluoro-4-((4-((5-(furan-2-yl)-2-methoxyphenyl)amino)-7-methoxy-quinazolin-6-yl)oxy)piperidin-1-yl)prop-2-en-1-one], the GI50 in test [1] and in test [2] was no more than 150 nM in each case.

Take `C=CC(=O)N1CC(Oc2cc3c(Nc4cc(-c5ccccc5)ccc4OC)ncnc3cc2OC)C1` [Example 5, 1-(3-((7-methoxy-4-((4-methoxy-[1,1′-biphenyl]-3-yl)amino)quinazolin-6-yl)oxy)azetidin-1-yl)prop-2-en-1-one]: in test [2], the GI50 is no more than 150 nM.

As for `C=CC(=O)N1CC(Oc2cc3c(Nc4cc(-c5cccnc5)ccc4OC)ncnc3cc2OC)C1` [Example 6, 1-(3-((7-methoxy-4-((2-methoxy-5-(pyridin-3-yl)phenyl)amino)quinazolin-6-yl)oxy)azetidin-1-yl)prop-2-en-1-one], in test [2], the GI50 was 150 to 1000 nM.

Regarding `C=CC(=O)N1CC(Oc2cc3c(Nc4cc(-c5ccc(F)cc5)ccc4OC)ncnc3cc2OC)C1` [Example 7, 1-(3-((4-((4′-fluoro-4-methoxy-[1,1′-biphenyl]-3-yl)amino)-7-methoxy-quinazolin-6-yl)oxy)azetidin-1-yl)prop-2-en-1-one], the GI50 in test [2] was no more than 150 nM.

Consider `C=CC(=O)N1CC(Oc2cc3c(Nc4cc(-c5cccc(F)c5)ccc4OC)ncnc3cc2OC)C1` [Example 8, 1-(3-((4-((3′-fluoro-4-methoxy-[1,1′-biphenyl]-3-yl)amino)-7-methoxy-quinazolin-6-yl)oxy)azetidin-1-yl)prop-2-en-1-one], for which the GI50 in test [1] and in test [2] was no more than 150 nM in each case.

On to `C=CC(=O)N1CC(Oc2cc3c(Nc4cc(-c5cccc(C(F)(F)F)c5)ccc4OC)ncnc3cc2OC)C1` [Example 9, 1-(3-((7-methoxy-4-((4-methoxy-3′-(trifluoromethyl)-[1,1′-biphenyl]-3-yl)amino)quinazolin-6-yl)oxy)azetidin-1-yl)prop-2-en-1-one], for which the GI50 in test [1] and in test [2] was 150 to 1000 nM in each case.

As for `C=CC(=O)N1CC(Oc2cc3c(Nc4cc(-c5cc(F)ccc5F)ccc4OC)ncnc3cc2OC)C1` [Example 10, 1-(3-((4-((2′,5′-difluoro-4-methoxy-[1,1′-biphenyl]-3-yl)amino)-7-methoxy-quinazolin-6-yl)oxy)azetidin-1-yl)prop-2-en-1-one], the GI50 in test [1] and in test [2] was no more than 150 nM in each case.

For the compound `C=CC(=O)N1CC(Oc2cc3c(Nc4cc(-c5cc(F)cc(F)c5)ccc4OC)ncnc3cc2OC)C1` [Example 11, 1-(3-((4-((3′,5′-difluoro-4-methoxy-[1,1′-biphenyl]-3-yl)amino)-7-methoxy-quinazolin-6-yl)oxy)azetidin-1-yl)prop-2-en-1-one], the results for the GI50 in test [1] and in test [2] were no more than 150 nM and 150 to 1000 nM, respectively.

With `C=CC(=O)N1CC(Oc2cc3c(Nc4cc(-c5ccn6ncnc6c5)ccc4OC)ncnc3cc2OC)C1` [Example 30, 1-(3-((4-((5-([1,2,4]triazolo [1,5-a]pyridin-7-yl)-2-methoxyphenyl)amino)-7-methoxy-quinazolin-6-yl)oxy)azetidin-1-yl)prop-2-en-1-one], the GI50 in test [2] was 150 to 1000 nM.

Take `C=CC(=O)N1CC(Oc2cc3c(Nc4cc(-c5cnc6ccnn6c5)ccc4OC)ncnc3cc2OC)C1` [Example 32, 1-(3-((7-methoxy-4-((2-methoxy-5-(pyrazolo[1,5-a]pyrimidin-6-yl)phenyl)amino)quinazolin-6-yl)oxy)azetidin-1-yl)prop-2-en-1-one]: the GI50 in test [2] lay within 150 to 1000 nM.

Take `C=CC(=O)N1CC(Oc2cc3c(Nc4cc(-c5ccc6occc6c5)ccc4OC)ncnc3cc2OC)C1` [Example 37, 1-(3-((4-((5-(benzofuran-5-yl)-2-methoxyphenyl)amino)-7-methoxy-quinazolin-6-yl)oxy)azetidin-1-yl)prop-2-en-1-one]: the GI50 in test [2] was no more than 150 nM.

In the case of `C=CC(=O)N1CC(Oc2cc3c(Nc4cc(-c5ccnn5C)ccc4OC)ncnc3cc2OC)C1` [Example 42, 1-(3-((7-methoxy-4-((2-methoxy-5-(1-methyl-1H-pyrazol-5-yl)phenyl)amino)quinazolin-6-yl)oxy)azetidin-1-yl)prop-2-en-1-one], the GI50 in test [2] is 150 to 1000 nM.

In the case of `C=CC(=O)N1CC(Oc2cc3c(Nc4cc(-c5cccs5)ccc4OC)ncnc3cc2OC)C1` [Example 43, 1-(3-((7-methoxy-4-((2-methoxy-5-(thiophen-2-yl)phenyl)amino)quinazolin-6-yl)oxy)azetidin-1-yl)prop-2-en-1-one], in test [2], the GI50 was no more than 150 nM.

Regarding `C=CC(=O)N1CC(Oc2cc3c(Nc4cc(-c5ccco5)ccc4OC)ncnc3cc2OC)C1` [Example 44, 1-(3-((4-((5-(furan-2-yl)-2-methoxyphenyl)amino)-7-methoxy-quinazolin-6-yl)oxy)azetidin-1-yl)prop-2-en-1-one], the GI50 in test [2] was no more than 150 nM.

With `C=CC(=O)N1CC(Oc2cc3c(Nc4cc(-c5ccoc5)ccc4OC)ncnc3cc2OC)C1` [Example 45, 1-(3-((4-((5-(furan-3-yl)-2-methoxyphenyl)amino)-7-methoxy-quinazolin-6-yl)oxy)azetidin-1-yl)prop-2-en-1-one], in test [2], the GI50 is no more than 150 nM.

`C=CC(=O)N1CC(Oc2cc3c(Nc4cc(-c5cncs5)ccc4OC)ncnc3cc2OC)C1` [Example 46, 1-(3-((7-methoxy-4-((2-methoxy-5-(thiazol-5-yl)phenyl)amino)quinazolin-6-yl)oxy)azetidin-1-yl)prop-2-en-1-one]: the 50% growth inhibitory concentration (GI50) in test [2] is 150 to 1000 nM.

For `C=CC(=O)N1CC(Oc2cc3c(Nc4cc(-c5ccsc5)ccc4OC)ncnc3cc2OC)C1` [Example 47, 1-(3-((7-methoxy-4-((2-methoxy-5-(thiophen-3-yl)phenyl)amino)quinazolin-6-yl)oxy)azetidin-1-yl)prop-2-en-1-one], the GI50 in test [2] was no more than 150 nM.

Take `C=CC(=O)N1CCC(Oc2cc3c(Nc4cc(-c5ccccc5)ccc4OC)ncnc3cc2OC)C1` (stereo not drawn) [Example 58, 1-(3-((7-methoxy-4-((4-methoxy-[1,1′-biphenyl]-3-yl)amino)quinazolin-6-yl)oxy)pyrrolidin-1-yl)prop-2-en-1-one]: the GI50 in test [2] lay within 150 to 1000 nM.

In the case of `C=CC(=O)N1CCC(Oc2cc3c(Nc4cc(-c5cccs5)ccc4OC)ncnc3cc2OC)C1` (stereo not drawn) [Example 63, 1-(3-((7-methoxy-4-((2-methoxy-5-(thiophen-2-yl)phenyl)amino)quinazolin-6-yl)oxy)pyrrolidin-1-yl)prop-2-en-1-one], the GI50 in test [2] is 150 to 1000 nM.

Regarding `C=CC(=O)N1CCC(Oc2cc3c(Nc4cc(-c5ccoc5)ccc4OC)ncnc3cc2OC)C1` (stereo not drawn) [Example 64, 1-(3-((4-((5-(furan-3-yl)-2-methoxyphenyl)amino)-7-methoxy-quinazolin-6-yl)oxy)pyrrolidin-1-yl)prop-2-en-1-one], in test [2], the GI50 was 150 to 1000 nM.

Regarding `C=CC(=O)N1CCC(Oc2cc3c(Nc4cc(-c5ccccc5)ccc4OC)ncnc3cc2OC)CC1` [Example 65, 1-(4-((7-methoxy-4-((4-methoxy-[1,1′-biphenyl]-3-yl)amino)quinazolin-6-yl)oxy)piperidin-1-yl)prop-2-en-1-one], in test [2], the GI50 was no more than 150 nM.

Take `C=CC(=O)N1CCC(Oc2cc3c(Nc4cc(-c5ccn6ncnc6c5)ccc4OC)ncnc3cc2OC)CC1` [Example 69, 1-(4-((4-((5-([1,2,4]triazolo[1,5-a]pyridin-7-yl)-2-methoxyphenyl)amino)-7-methoxy-quinazolin-6-yl)oxy)piperidin-1-yl)prop-2-en-1-one]: in test [2], the GI50 lay in the range of 150 to 1000 nM.

`C=CC(=O)N1CCC(Oc2cc3c(Nc4cc(-c5ccoc5)ccc4OC)ncnc3cc2OC)CC1` [Example 81, 1-(4-((4-((5-(furan-3-yl)-2-methoxyphenyl)amino)-7-methoxy-quinazolin-6-yl)oxy)piperidin-1-yl)prop-2-en-1-one]: the GI50 in test [2] lay within 150 to 1000 nM.

With `C=CC(=O)N1CCC(Oc2cc3c(Nc4cc(-c5ccc(C)o5)ccc4OC)ncnc3cc2OC)CC1` [Example 86, 1-(4-((7-methoxy-4-((2-methoxy-5-(5-methylfuran-2-yl)phenyl)amino)quinazolin-6-yl)oxy)piperidin-1-yl)prop-2-en-1-one], the GI50 in test [1] lay within 150 to 1000 nM.

`COc1ccc(-c2ccco2)cc1Nc1ncnc2cc(OC)c(OC3CCN(C(=O)/C=C/CN(C)C)CC3)cc12` [Example 120, (E)-4-(dimethylamino) 1-(4-((4-((5-(furan-2-yl)-2-methoxyphenyl)amino)-7-methoxy-quinazolin-6-yl)oxy)piperidin-1-yl)but-2-en-1-one]: the GI50 in test [2] was in the range of 150 to 1000 nM.

Values taken from US20240246940A1, “HETEROARYL DERIVATIVE COMPOUND AND USE THEREOF” (VORONOI INC., priority 2021, published 2024).
